Measurements reported in patent publication US20110071108A1, “Beta-Cyclodextrin Derivatives as Antibacterial Agents” (Pinnacle Pharmaceuticals, Inc., priority 2005, published 2011).

How the values were obtained:
Assay in all cases: Bacterial panel testing, MIC by broth microdilution
Type in all cases: cell-based
Settings in all cases: 20-24 hours growth
Enterococcus faecium = test system: Enterococcus faecium
Method: (§1) One to three colonies of bacteria were picked from an Mueller-Hinton or Brain Heart infusion agar plate (depending on the bacterial strain) and transferred to 3 ml Mueller-Hinton broth or Brain Heart infusion media (depending on the bacterial strain). Bacteria were allowed to grow for 2-4 hours in an incubator at 37° C. Bacteria-inoculated media were dispersed in 0.9% saline to match McFarland standard density. 100 μl standardized inoculation was added to 20 ml media (dilution 1). 10 μl of the new dilution was added to 990 μl media and mixed (dilution 2). 10 μl of dilution 2 was spread on an agar plate and allowed to grow overnight. Colonies were then […].
(§2) Test compound was diluted to 10 μg/ml in dimethylsulfoxide. Four μl of Rifampicin antibiotic was loaded into row H, column 2.
(§3) All wells were then filled with 100 μl of inoculated media (dilution 1 from Example 1). A further 100 μl of the inoculated media was then added to column 2 and the contents are pipetted to thoroughly mix the contents. A full 100 μl was then transferred from column 2 and mixed into column 3. This process was continued from left to right until columns 2-12 were serially diluted, and the final draw from column 12 was discarded. The plates were covered with 3M sealing tape (plates containing Enterococcus faecium were sealed with Air Pore sealing tape) and allowed to grow for 20-24 hours. Cytotoxic wells (clear wells) are then scored and the potency of the compound was determined.

Pseudomonas aeruginosa = test system: Pseudomonas aeruginosa
Method: as §1, §2, §3

Eschericia coli = test system: Eschericia coli
Method: as §1, §2, §3

Salmonella choleraesuis = test system: Salmonella choleraesuis
Method: as §1, §2, §3

| SMILES | MIC EF (Enterococcus faecium) [µg/mL] | MIC PA (Pseudomonas aeruginosa) [µg/mL] | MIC EC (Eschericia coli) [µg/mL] | MIC SC (Salmonella choleraesuis) [µg/mL] |
| --- | --- | --- | --- | --- |
| CC(C)(C)[Si](C)(C)OC1CNC(C(=O)NCC2OC3OC4C(CNC(=O)C5CC(O[Si](C)(C)C(C)(C)C)CN5)OC(OC5C(CNC(=O)C6CC(O[Si](C)(C)C(C)(C)C)CN6)OC(OC6C(CNC(=O)C7CC(O[Si](C)(C)C(C)(C)C)CN7)OC(OC7C(CNC(=O)C8CC(O[Si](C)(C)C(C)(C)C)CN8)OC(OC8C(CNC(=O)C9CC(O[Si](C)(C)C(C)(C)C)CN9)OC(OC9C(CNC(=O)C%10CC(O[Si](C)(C)C(C)(C)C)CN%10)OC(OC2C(O)C3O)C(O)C9O)C(O)C8O)C(O)C7O)C(O)C6O)C(O)C5O)C(O)C4O)C1.O=C(O)C(F)(F)F.O=C(O)C(F)(F)F.O=C(O)C(F)(F)F.O=C(O)C(F)(F)F.O=C(O)C(F)(F)F.O=C(O)C(F)(F)F.O=C(O)C(F)(F)F (stereo not drawn) | >200 | >200 | – | – |
| CCCCCCCCCCNC[C@H]1O[C@@H]2O[C@H]3[C@H](O)[C@@H](O)[C@@H](O[C@H]4[C@H](O)[C@@H](O)[C@@H](O[C@H]5[C@H](O)[C@@H](O)[C@@H](O[C@H]6[C@H](O)[C@@H](O)[C@@H](O[C@H]7[C@H](O)[C@@H](O)[C@@H](O[C@H]8[C@H](O)[C@@H](O)[C@@H](O[C@H]1[C@H](O)[C@H]2O)O[C@@H]8CNCCCCCCCCCC)O[C@@H]7CNCCCCCCCCCC)O[C@@H]6CNCCCCCCCCCC)O[C@@H]5CNCCCCCCCCCC)O[C@@H]4CNCCCCCCCCCC)O[C@@H]3CNCCCCCCCCCC | – | >200 | >200 | >200 |
| Oc1cccnc1NCC1OC2OC3C(CNc4ncccc4O)OC(OC4C(CNc5ncccc5O)OC(OC5C(CNc6ncccc6O)OC(OC6C(CNc7ncccc7O)OC(OC7C(CNc8ncccc8O)OC(OC8C(CNc9ncccc9O)OC(OC1C(O)C2O)C(O)C8O)C(O)C7O)C(O)C6O)C(O)C5O)C(O)C4O)C(O)C3O (stereo not drawn) | – | >200 | >200 | >200 |
| CCCCCCCCCCCC[N+]12CC[N+](CC3OC4OC5C(C[N+]67CC[N+](CCCCCCCCCCCC)(CC6)CC7)OC(OC6C(C[N+]78CC[N+](CCCCCCCCCCCC)(CC7)CC8)OC(OC7C(C[N+]89CC[N+](CCCCCCCCCCCC)(CC8)CC9)OC(OC8C(C[N+]9%10CC[N+](CCCCCCCCCCCC)(CC9)CC%10)OC(OC9C(C[N+]%10%11CC[N+](CCCCCCCCCCCC)(CC%10)CC%11)OC(OC%10C(C[N+]%11%12CC[N+](CCCCCCCCCCCC)(CC%11)CC%12)OC(OC3C(O)C4O)C(O)C%10O)C(O)C9O)C(O)C8O)C(O)C7O)C(O)C6O)C(O)C5O)(CC1)CC2.[Br-].[Br-].[Br-].[Br-].[Br-].[Br-].[Br-].[Br-].[Br-].[Br-].[Br-].[Br-].[Br-].[Br-] (stereo not drawn) | – | >200 | >200 | >200 |
| CCCCCCCCCCCCCCCC[N+]12CC[N+](CC3OC4OC5C(C[N+]67CC[N+](CCCCCCCCCCCCCCCC)(CC6)CC7)OC(OC6C(C[N+]78CC[N+](CCCCCCCCCCCCCCCC)(CC7)CC8)OC(OC7C(C[N+]89CC[N+](CCCCCCCCCCCCCCCC)(CC8)CC9)OC(OC8C(C[N+]9%10CC[N+](CCCCCCCCCCCCCCCC)(CC9)CC%10)OC(OC9C(C[N+]%10%11CC[N+](CCCCCCCCCCCCCCCC)(CC%10)CC%11)OC(OC%10C(C[N+]%11%12CC[N+](CCCCCCCCCCCCCCCC)(CC%11)CC%12)OC(OC3C(O)C4O)C(O)C%10O)C(O)C9O)C(O)C8O)C(O)C7O)C(O)C6O)C(O)C5O)(CC1)CC2.[Br-].[Br-].[Br-].[Br-].[Br-].[Br-].[Br-].[Br-].[Br-].[Br-].[Br-].[Br-].[Br-].[Br-] (stereo not drawn) | – | >200 | – | – |
| OC1C2OC(CNc3cccc4ccccc34)C(OC3OC(CNc4cccc5ccccc45)C(OC4OC(CNc5cccc6ccccc56)C(OC5OC(CNc6cccc7ccccc67)C(OC6OC(CNc7cccc8ccccc78)C(OC7OC(CNc8cccc9ccccc89)C(OC8OC(CNc9cccc%10ccccc9%10)C(O2)C(O)C8O)C(O)C7O)C(O)C6O)C(O)C5O)C(O)C4O)C(O)C3O)C1O (stereo not drawn) | – | >200 | >200 | >200 |
| OC1C2OC(CNc3ccccc3-c3ccccc3)C(OC3OC(CNc4ccccc4-c4ccccc4)C(OC4OC(CNc5ccccc5-c5ccccc5)C(OC5OC(CNc6ccccc6-c6ccccc6)C(OC6OC(CNc7ccccc7-c7ccccc7)C(OC7OC(CNc8ccccc8-c8ccccc8)C(OC8OC(CNc9ccccc9-c9ccccc9)C(O2)C(O)C8O)C(O)C7O)C(O)C6O)C(O)C5O)C(O)C4O)C(O)C3O)C1O (stereo not drawn) | – | >200 | >200 | >200 |
| CCCCCCCCCC[N+]12CC[N+](CC(=O)NCC3OC4OC5C(CNC(=O)C[N+]67CC[N+](CCCCCCCCCC)(CC6)CC7)OC(OC6C(CNC(=O)C[N+]78CC[N+](CCCCCCCCCC)(CC7)CC8)OC(OC7C(CNC(=O)C[N+]89CC[N+](CCCCCCCCCC)(CC8)CC9)OC(OC8C(CNC(=O)C[N+]9%10CC[N+](CCCCCCCCCC)(CC9)CC%10)OC(OC9C(CNC(=O)C[N+]%10%11CC[N+](CCCCCCCCCC)(CC%10)CC%11)OC(OC%10C(CNC(=O)C[N+]%11%12CC[N+](CCCCCCCCCC)(CC%11)CC%12)OC(OC3C(O)C4O)C(O)C%10O)C(O)C9O)C(O)C8O)C(O)C7O)C(O)C6O)C(O)C5O)(CC1)CC2 (stereo not drawn) | >200 | – | – | – |
| OC1C2OC(CNCc3cccc4ccccc34)C(OC3OC(CNCc4cccc5ccccc45)C(OC4OC(CNCc5cccc6ccccc56)C(OC5OC(CNCc6cccc7ccccc67)C(OC6OC(CNCc7cccc8ccccc78)C(OC7OC(CNCc8cccc9ccccc89)C(OC8OC(CNCc9cccc%10ccccc9%10)C(O2)C(O)C8O)C(O)C7O)C(O)C6O)C(O)C5O)C(O)C4O)C(O)C3O)C1O (stereo not drawn) | – | >200 | >200 | >200 |
| C[C@H](NCC1OC2OC3C(CN[C@@H](C)c4ccccc4)OC(OC4C(CN[C@@H](C)c5ccccc5)OC(OC5C(CN[C@@H](C)c6ccccc6)OC(OC6C(CN[C@@H](C)c7ccccc7)OC(OC7C(CN[C@@H](C)c8ccccc8)OC(OC8C(CN[C@@H](C)c9ccccc9)OC(OC1C(O)C2O)C(O)C8O)C(O)C7O)C(O)C6O)C(O)C5O)C(O)C4O)C(O)C3O)c1ccccc1 (stereo partly drawn) | – | >200 | – | >200 |
| Cc1cccc(NCC2OC3OC4C(CNc5cccc(C)c5)OC(OC5C(CNc6cccc(C)c6)OC(OC6C(CNc7cccc(C)c7)OC(OC7C(CNc8cccc(C)c8)OC(OC8C(CNc9cccc(C)c9)OC(OC9C(CNc%10cccc(C)c%10)OC(OC2C(O)C3O)C(O)C9O)C(O)C8O)C(O)C7O)C(O)C6O)C(O)C5O)C(O)C4O)c1 (stereo not drawn) | – | >200 | >200 | >200 |
| Cc1ccccc1NCC1OC2OC3C(CNc4ccccc4C)OC(OC4C(CNc5ccccc5C)OC(OC5C(CNc6ccccc6C)OC(OC6C(CNc7ccccc7C)OC(OC7C(CNc8ccccc8C)OC(OC8C(CNc9ccccc9C)OC(OC1C(O)C2O)C(O)C8O)C(O)C7O)C(O)C6O)C(O)C5O)C(O)C4O)C(O)C3O (stereo not drawn) | – | >200 | >200 | >200 |
| COc1cccc(CCNCC2OC3OC4C(CNCCc5cccc(OC)c5)OC(OC5C(CNCCc6cccc(OC)c6)OC(OC6C(CNCCc7cccc(OC)c7)OC(OC7C(CNCCc8cccc(OC)c8)OC(OC8C(CNCCc9cccc(OC)c9)OC(OC9C(CNCCc%10cccc(OC)c%10)OC(OC2C(O)C3O)C(O)C9O)C(O)C8O)C(O)C7O)C(O)C6O)C(O)C5O)C(O)C4O)c1 (stereo not drawn) | – | >200 | – | – |
| CC(C)CCCCC(C)NCC1OC2OC3C(CNC(C)CCCCC(C)C)OC(OC4C(CNC(C)CCCCC(C)C)OC(OC5C(CNC(C)CCCCC(C)C)OC(OC6C(CNC(C)CCCCC(C)C)OC(OC7C(CNC(C)CCCCC(C)C)OC(OC8C(CNC(C)CCCCC(C)C)OC(OC1C(O)C2O)C(O)C8O)C(O)C7O)C(O)C6O)C(O)C5O)C(O)C4O)C(O)C3O (stereo not drawn) | – | >200 | – | – |
| OC1C2OC(CNCCC3=CCCCC3)C(OC3OC(CNCCC4=CCCCC4)C(OC4OC(CNCCC5=CCCCC5)C(OC5OC(CNCCC6=CCCCC6)C(OC6OC(CNCCC7=CCCCC7)C(OC7OC(CNCCC8=CCCCC8)C(OC8OC(CNCCC9=CCCCC9)C(O2)C(O)C8O)C(O)C7O)C(O)C6O)C(O)C5O)C(O)C4O)C(O)C3O)C1O (stereo not drawn) | – | >200 | – | – |
| OC1C2OC(CNCc3ccc(Cl)cc3)C(OC3OC(CNCc4ccc(Cl)cc4)C(OC4OC(CNCc5ccc(Cl)cc5)C(OC5OC(CNCc6ccc(Cl)cc6)C(OC6OC(CNCc7ccc(Cl)cc7)C(OC7OC(CNCc8ccc(Cl)cc8)C(OC8OC(CNCc9ccc(Cl)cc9)C(O2)C(O)C8O)C(O)C7O)C(O)C6O)C(O)C5O)C(O)C4O)C(O)C3O)C1O (stereo not drawn) | – | >200 | – | >200 |
| Cc1cc(NCC2OC3OC4C(CNc5ccc(C(C)C)c(C)c5)OC(OC5C(CNc6ccc(C(C)C)c(C)c6)OC(OC6C(CNc7ccc(C(C)C)c(C)c7)OC(OC7C(CNc8ccc(C(C)C)c(C)c8)OC(OC8C(CNc9ccc(C(C)C)c(C)c9)OC(OC9C(CNc%10ccc(C(C)C)c(C)c%10)OC(OC2C(O)C3O)C(O)C9O)C(O)C8O)C(O)C7O)C(O)C6O)C(O)C5O)C(O)C4O)ccc1C(C)C (stereo not drawn) | – | >200 | >200 | >200 |
| OC1C2OC(CNCc3ccc(Br)cc3)C(OC3OC(CNCc4ccc(Br)cc4)C(OC4OC(CNCc5ccc(Br)cc5)C(OC5OC(CNCc6ccc(Br)cc6)C(OC6OC(CNCc7ccc(Br)cc7)C(OC7OC(CNCc8ccc(Br)cc8)C(OC8OC(CNCc9ccc(Br)cc9)C(O2)C(O)C8O)C(O)C7O)C(O)C6O)C(O)C5O)C(O)C4O)C(O)C3O)C1O (stereo not drawn) | – | – | >200 | – |
